Measured values: PubChem BioAssay (NCI)
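96-well plates; 48 h exposure; 5 concentrations. Endpoints by linear interpolation between flanking doses. Not reached: highest tested concentration assigned. The concentration for full growth arrest is given as TGI.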

What was measured:
Experiment in all cases: DTP human tumour cell line panel, 48 h
[1] = system: 786-0 renal
[2] = system: A498 renal
[3] = system: A549 NSCLC
[4] = system: ACHN renal
[5] = system: CAKI-1 renal
[6] = system: CCRF-CEM leukemia
[7] = system: COLO 205 colon
[8] = system: EKVX NSCLC
[9] = system: HCC-2998 colon
[10] = system: HCT-116 colon
[11] = system: HCT-15 colon
[12] = system: HL-60(TB) leukemia
[13] = system: HOP-62 NSCLC
[14] = system: HOP-92 NSCLC
[15] = system: HS 578T breast
[16] = system: HT29 colon
[17] = system: IGROV1 ovarian
[18] = system: K-562 leukemia
[19] = system: KM12 colon
[20] = system: LOX IMVI melanoma
[21] = system: M14 melanoma
[22] = system: MALME-3M melanoma
[23] = system: MCF7 breast
[24] = system: MDA-MB-231 breast
[25] = system: MDA-MB-435
[26] = system: MDA-N
[27] = system: MOLT-4 leukemia
[28] = system: NCI-H226 lung
[29] = system: NCI-H23 lung
[30] = system: NCI-H460 lung
[31] = system: NCI-H522 lung
[32] = system: NCI/ADR-RES ovarian
[33] = system: OVCAR-3 ovarian
[34] = system: OVCAR-4 ovarian
[35] = system: OVCAR-5 ovarian
[36] = system: OVCAR-8 ovarian
[37] = system: PC-3 prostate
[38] = system: RPMI-8226 leukemia
[39] = system: RXF 393 renal
[40] = system: SF-295 CNS
[41] = system: SF-539 CNS
[42] = system: SK-MEL-2 melanoma
[43] = system: SK-MEL-5 melanoma
[44] = system: SN12C renal
[45] = system: SNB-19 CNS
[46] = system: SNB-75 CNS
[47] = system: SR leukemia
[48] = system: SW-620 colon
[49] = system: T-47D breast
[50] = system: TK-10 renal
[51] = system: U251 CNS
[52] = system: UACC-257 melanoma
[53] = system: UACC-62 melanoma
[54] = system: UO-31 renal

**Q.** Which TGI [1] does the source give for `COC(=O)CN1CCN(c2cccc3c2CCCC3)CC1` here?
**A.** > 100 µM

**Q.** What about the TGI [2] of the same molecule?
**A.** > 100 µM

**Q.** And the TGI [3]?
**A.** > 100 µM

**Q.** And the TGI [4]?
**A.** > 100 µM

**Q.** And the TGI [5]?
**A.** > 100 µM

**Q.** What about the TGI [6] of the same molecule?
**A.** > 100 µM

**Q.** What about the TGI [7] of the same molecule?
**A.** > 100 µM

**Q.** What about the TGI [8] of the same molecule?
**A.** > 100 µM

**Q.** What about the TGI [9] of the same molecule?
**A.** 85.3 µM

**Q.** And the TGI [10]?
**A.** > 100 µM

**Q.** And the TGI [11]?
**A.** > 100 µM

**Q.** What about the TGI [12] of the same molecule?
**A.** > 100 µM

**Q.** What about the TGI [13] of the same molecule?
**A.** > 100 µM

**Q.** What about the TGI [14] of the same molecule?
**A.** 15.4 µM

**Q.** And the TGI [15]?
**A.** > 100 µM

**Q.** And the TGI [16]?
**A.** 65.8 µM

**Q.** And the TGI [17]?
**A.** > 100 µM

**Q.** And the TGI [18]?
**A.** > 100 µM

**Q.** What about the TGI [19] of the same molecule?
**A.** > 100 µM

**Q.** And the TGI [20]?
**A.** > 100 µM

**Q.** What about the TGI [21] of the same molecule?
**A.** > 100 µM

**Q.** And the TGI [22]?
**A.** > 100 µM

**Q.** And the TGI [23]?
**A.** 94.3 µM

**Q.** What about the TGI [24] of the same molecule?
**A.** > 100 µM

**Q.** And the TGI [25]?
**A.** > 100 µM

**Q.** And the TGI [26]?
**A.** > 100 µM

**Q.** And the TGI [27]?
**A.** > 100 µM

**Q.** What about the TGI [28] of the same molecule?
**A.** 94.6 µM

**Q.** What about the TGI [29] of the same molecule?
**A.** 48.7 µM

**Q.** What about the TGI [30] of the same molecule?
**A.** > 100 µM

**Q.** What about the TGI [31] of the same molecule?
**A.** > 100 µM

**Q.** What about the TGI [32] of the same molecule?
**A.** > 100 µM

**Q.** What about the TGI [33] of the same molecule?
**A.** 72.4 µM

**Q.** And the TGI [34]?
**A.** > 100 µM

**Q.** And the TGI [35]?
**A.** > 100 µM

**Q.** What about the TGI [36] of the same molecule?
**A.** > 100 µM

**Q.** And the TGI [37]?
**A.** > 100 µM

**Q.** What about the TGI [38] of the same molecule?
**A.** 85.8 µM

**Q.** What about the TGI [39] of the same molecule?
**A.** > 100 µM

**Q.** What about the TGI [40] of the same molecule?
**A.** > 100 µM

**Q.** What about the TGI [41] of the same molecule?
**A.** > 100 µM

**Q.** And the TGI [42]?
**A.** > 100 µM

**Q.** And the TGI [43]?
**A.** 60 µM

**Q.** And the TGI [44]?
**A.** > 100 µM

**Q.** What about the TGI [45] of the same molecule?
**A.** > 100 µM

**Q.** And the TGI [46]?
**A.** > 100 µM

**Q.** And the TGI [47]?
**A.** > 100 µM

**Q.** And the TGI [48]?
**A.** > 100 µM

**Q.** What about the TGI [49] of the same molecule?
**A.** > 100 µM

**Q.** And the TGI [50]?
**A.** > 100 µM

**Q.** What about the TGI [51] of the same molecule?
**A.** > 100 µM

**Q.** What about the TGI [52] of the same molecule?
**A.** > 100 µM

**Q.** And the TGI [53]?
**A.** > 100 µM

**Q.** What about the TGI [54] of the same molecule?
**A.** > 100 µM
